# According to US11952432B2, “Cell-permeable stapled peptide modules for cellular delivery” (Dana-Farber Cancer Institute, Inc., priority 2018, dated 2024):
# “Also recorded” adds a separate entry of the source. Bridge positions count the residues as written; N and C are the ends. Square brackets hold non-standard residues; d marks the D form. Ends that are not written are not given here. R8 = C=CCCCCCC[C@@](C)(N)C(=O)O; S5 = C=CCCC[C@](C)(N)C(=O)O; Nle = CCCC[C@H](N)C(=O)O; CycB = not defined here; βAla = NCCC(=O)O
# Key:
# [1] = tested on: cells; assay: Cellular uptake and intracellular distribution of TAMRA-labeled peptides by fluorescence microscopy; details: for Distribution/Observations: TAMRA-labeled peptides 10 μM, approximately 1 hour incubation, fluorescence microscope
# Description: In Vitro Cell Uptake Assays: To assess cellular uptake of cargoes that are bound to cell-permeable stapled peptide modules, fluorescent tracers (e.g. TAMRA, FITC) are attached to the cell-permeable stapled peptide modules or the cargos. The cellular uptake can be tracked by, e.g., epifluorescence microscopy, fluorescence microscopy, confocal microscopy, and/or flow cytometry, at different time periods. In this manner, the rate of uptake and the intracellular distribution patterns of the stabilized peptides (e.g., CPSPs and CPSP-conjugates, other cell-permeable stapled peptides) can also be determined.
# CPSP1-CPSP9 and L-CPSP (where L is an F-actin staining peptide) were labeled with a fluorescent dye, TAMRA. […] These TAMRA-labeled peptides (10 μM) were added to cell culture. After incubating the peptides with the cells for approximately 1 hour, the cells were examined by a fluorescence microscope.
# Furthermore, TAMRA-labeled CPSP3 (SEQ ID NO: 14) (10 μM) and MitoTracker were both added to the cell culture.
# [2] = target: T1, MCL-1 (Homo sapiens, UniProt Q07820); assay: Intracellular binding assay: colocalization with expressed MCL-1 ectopically targeted to the nuclear lamina; assay type: cell-based; details: colocalization at nuclear lamina with ectopically targeted MCL-1 (FIG. 5)
# T1 construct: expressed in transfected cells
# T1 sequence (Q07820 whole entry, species assumed): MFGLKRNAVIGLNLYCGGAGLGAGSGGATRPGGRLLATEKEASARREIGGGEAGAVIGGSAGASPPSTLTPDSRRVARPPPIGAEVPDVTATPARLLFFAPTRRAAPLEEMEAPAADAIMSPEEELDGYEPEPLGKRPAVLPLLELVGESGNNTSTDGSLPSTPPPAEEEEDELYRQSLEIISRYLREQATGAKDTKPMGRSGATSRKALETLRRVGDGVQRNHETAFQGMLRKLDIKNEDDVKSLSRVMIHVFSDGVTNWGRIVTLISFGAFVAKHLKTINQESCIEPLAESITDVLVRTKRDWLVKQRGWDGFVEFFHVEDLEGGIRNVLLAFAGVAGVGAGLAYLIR
# Description: Intracellular binding Assays: To assess the binding of the CPSP-fusions to their respective protein target(s), cells were transfected with a GFP binding nanobody fraction coupled to nuclear lamina binding sequence (lamin B1). This nanobody binds to GFP tagged proteins and recruits them to the nuclear lamina allowing the recruitment and visualization of proteins interacting with the GFP tagged protein of interest. For example, GFP-MCL-1 can be expressed and localized to the nuclear lamina, followed by treatment of cells with TAMRA-labeled ATSP-7041/MCL-1 SAHBD fusion, followed by confocal microscopy imaging to monitor for the colocalization of TAMRA-labeled CPSP fusion at the nuclear lamina.
# [3] = tested on: mitochondria of the treated cells; assay: Co-labeling of TAMRA-labeled CPSP3 with MitoTracker; assay type: cell-based; details: 10 μM (FIG. 2); listed as TAMRA-labeled CPSP3
# [4] = conjugated to CPSP3, 10 μM (FIG. 3B)
Substance,Distribution/Observations [1],further results
* Ba LTF8EYWAQ CycB XSAAAGGGGGK (SEQ ID NO: 61) -[GCCTAGTTTATCACCAATAAT] (SEQ ID NO: 62) [TAMRA-ATSP-7041/PNA],–,intracellular delivery ([1]; PNA fusion (FIG. 6)): robust intracellular delivery
"* Ba R K A L E T L R R V B D G V X R N H X T A F G G G G G L T F 8 E Y W A Q CycB X S A A (SEQ ID NO: 22) ([βAla]RKALETLRRV[Nle]DGV[S5]RNH[S5]TAFGGGGGLTF[R8]EYWAQ[CycB][S5]SAA; staple 16-20, 32-39 (inferred); reading uncertain; also: TAMRA label) [TAMRA-labeled MCL-1 SAHBD/ATSP-7041]",–,"delivery to the cytosol of treated cells ([1]; 4 μM, 4 hours (FIG. 1, FIGS. 4A-B)): efficiently delivered to the cytosol; intracellular engagement of MCL-1 [2]: colocalization of the fusion to the nuclear lamina; intracellular engagement of MCL-1 ([2]; listed as CPSP-MCL-1 SAHBD conjugate): retains the capacity to engage its intracellular target"
* Ba X R R R X R B (SEQ ID NO: 18) [TAMRA-CPSP7],Cytosol; Nucleus; Nucleolus; Endosomes; lysosomes,–
* Ba X R r R X (SEQ ID NO: 13) [TAMRA-CPSP2],Cytosol; Nucleus; Nucleolus; Endosomes; lysosomes,–
* Ba X R r R X B (SEQ ID NO: 15) [TAMRA-CPSP4],Cytosol; Nucleus; Nucleolus; Endosomes; lysosomes,–
* Ba X R r R X Naph (SEQ ID NO: 17) [TAMRA-CPSP6],Cytosol; Nucleus; Nucleolus; Endosomes; lysosomes,–
* Ba X R r R X R (SEQ ID NO: 12) [TAMRA-CPSP1],Cytosol; Nucleus; Nucleolus; Endosomes; lysosomes,–
* Ba X R r R X R B (SEQ ID NO: 14) [TAMRA-CPSP3],CPSP3 were enriched at mitochondria as well as Cytosol;; also recorded: Nucleus; Nucleolus; Endosomes; lysosomes,enrichment at the mitochondria (co-labeling with MitoTracker) [3]: Enrichment of TAMRA-labeled CPSP3 at the mitochondria
* Ba X R r R X R B G B R X R r R X (SEQ ID NO: 19) [TAMRA-CPSP8],Cytosol; Nucleus; Nucleolus; Endosomes; lysosomes,–
* Ba X R r R X R B G X R r R X R B (SEQ ID NO: 20) [TAMRA-CPSP9],Cytosol; Nucleus; Nucleolus; Endosomes; lysosomes,–
* Ba X R r R X R Naph (SEQ ID NO: 16) [TAMRA-CPSP5],Cytosol; Nucleus; Nucleolus; Endosomes; lysosomes,–
"* Ba XRrRXRB-GZG-EALKKALRRHRFLWQR RQRA (SEQ ID NO: 63) ([βAla][S5]R[dR]R[S5]R[Nle]G[βAla]GEALKKALRRHRFLWQRRQRA; not fully specified (N-terminus, bridges); bridges not given here; also: TAMRA label) [TAMRA-CPSP3/vMIA]",–,"intracellular delivery ([1]; 10 μM, 1 h (FIG. 7, bottom panel)): robust intracellular delivery"
Ac B G V A D L I K K F E X I A K X E K* G G G G G X R r R X R B (SEQ ID NO: 21) (Ac-[Nle]GVADLIKKFE[S5]IAK[S5]EK(TAMRA)GGGGG[S5]R[dR]R[S5]R[Nle]; not fully specified (bridges); bridges not given here) [TAMRA-L-CPSP3],Cytosol; Nucleus; Nucleolus; Endosomes; lysosomes;; also recorded: Actin filaments,"delivery of the peptide into the cell [1, 4]: robust delivery of the peptide into the cell; intracellular localization [1, 4]: notable localization of L-CPSP3 to actin filaments"
